For the test, the system named is larvae expressing TDP-43 in motor neurons. The test is described as follows: Larval turning assay (locomotor function). The class given is in vivo, Drosophila. The conditions noted are these: for locomotor function measured by larval turning assays: TDP-43 expressed in motor neurons, FIGS. 1-3; for locomotor function: Student's t-test, N>20 larvae/genotype. The method, then:
Drosophila genetics. TDP-43 was expressed in motor neurons using the GAL4-UAS bipartite expression system. D42 GAL4 was used as an expression driver and UAS-TDP-43 YFP trasgenics were used as responder lines (Estes, et al., 2011, Hum. Mol. Genet).
Locomotor function. Locomotion was assessed using quantitative larval turning assays. Crosses were carried out at 25° C. and wandering third instar larvae were placed on a grape juice plate at room temperature. After a 30 second acclimation period, larvae were gently turned ventral side up. They were observed until they turned over (dorsal side up) and began making a forward motion. The time it took to complete this task was recorded for at least 20 larvae per genotype.
Statistical analyses. Student's t-tests were performed to determine statistical significance.

Setting [1] is: larvae expressing TDPG298S in motor neurons.
Setting [2] is: larvae expressing TDPWT in motor neurons.

SMILES strings stand for the structures.

Take `COc1cc2c(C(=O)C(F)(F)F)c(C(F)(F)F)[nH]c2cc1F` [EV-3-298]: the “locomotor function measured by larval turning assays” value (“locomotor function measured” below) is on record as “significant improvement of locomotor function”. Moreover, the locomotor function result under setting [1] was “improves locomotor function”. Under setting [2], the locomotor function entry is “improves locomotor function”.
As for `CCOC(=O)C1=CCN([S@@+]([O-])C(C)(C)C)[C@H]1c1ccsc1` [CH-III-31], the “locomotor function measured” value is reported as “significant improvement of locomotor function”. In addition, the locomotor function result under setting [1] is listed as “improves locomotor function”. In addition, under setting [2], the locomotor function entry is listed as “improves locomotor function”.
Take `CCOC(=O)C1=CCN([S@+]([O-])C(C)(C)C)[C@@H]1C[C@@H](C)CCC=C(C)C` [CH-I-108]: the “locomotor function measured” value is on record as “significant improvement of locomotor function”. The locomotor function result under setting [1] is listed as “improves locomotor function”. The locomotor function entry under setting [2] is “improves locomotor function”.
